Test results reported in article PMC9048745, “Physicochemical investigation of a novel curcumin diethyl γ-aminobutyrate, a carbamate ester prodrug of curcumin with enhanced anti-neuroinflammatory activity” (PLoS ONE, 2022).
In brackets after ≈: the same amount, converted by molar mass. Where two headings read alike, the source gives them in different places.

What was measured:
[1] = Solubility mimicking gastrointestinal pH, with and without 0.5% SLS; dose number (D0); type: physicochemical; settings: for solubility at 1 h: thermodynamic from solid
Procedure: For solubility mimicking gastrointestinal pH, an excess amount of CUR-2GE (1 mg) was added to a vial containing 2 mL of buffer pH 1.2, 4.5 or 6.8 with and without a surfactant (0.5% SLS). The mixture was sonicated for 1 h before orbital shaking at 37°C at 100 rpm for 1 h. After that, the mixture was centrifuged at 25°C at 14,000 rpm for 10 min prior to UPLC analysis. Experiments were performed in triplicate. The dose number (D0) at different media was determined and the BSC solubility class was assigned. (see S1 Appendix).
S1 Appendix. Experimental procedures
The solubility category was classified according to USP [1] as very soluble (>1000 mg/mL), freely soluble (100-1000 mg/mL), soluble (33-100 mg/mL), sparingly soluble (10-33 mg/mL), slightly soluble (1-10 mg/mL), very slightly soluble (0.1-1 mg/mL) and practically […]
The percentage of CUR-2GE in the undissociated form at various pH values were calculated based on Henderson-Hasselbalch using Eq. 1:
%Undissociated form = 100 - antilog (pH-pKa) x 100 (1)
Where pH; pH value of the medium for solubilization, pKa; negative logarithm of the dissociation constant (Ka) of CUR-2GE with computed using the Marvin (Product version: 21.8.0) of ChemAxon (Budapest, Hungary) (http://www.chemaxon.com) accessed on June 2021.
The dose number (D0) was calculated to assign the BSC solubility class, the D0 for each pH buffer solution without surfactant was calculated using the following Eq. 2: […]
Where M0 is the highest dose strength (mg) of capsule equivalent to curcumin, the adopted dose of CUR-2GE is 927 mg equivalent to curcumin 500 mg dose. V0 is the initial gastric volume (≈250 mL), Cs is the saturation solubility of CUR-2GE in buffer solution without surfactant (mg/mL). Drugs with D0 < 1 in pH 1.2, 4.5 and 6.8 are considered as high solubility drugs. Drugs with D0 > 1 in any of the buffer solutions are classified as low solubility drugs.

[2] = Partition coefficient, shake flask method (OECD 107); type: physicochemical; settings: 25°C, aqueous phase not detectable, LOQ of 0.05 μg/mL used for calculation
Procedure: The partition coefficient of CUR-2GE was quantified using the shake flask method according to the guideline of OECD 107 with some modifications. A saturated mixture of n-octanol/water was firstly prepared at 25°C by stirring an equal volume of n-octanol/water for 24 h and left standing until complete separation. A 1 mg of CUR-2GE was dissolved in saturated n-octanol and water at volume ratios of 1:1, 1:2 and 2:1 in screw cap tubes. Experiments were run in duplicate. The tube was shaken through 180° over the transverse axis approximately 100 times in 5 min at room temperature (25°C) to reach equilibrium and phase distribution. The phases were then separated by centrifugation at 25°C at 5,500 rpm for 10 min. […] CUR-2GE concentrations in each phase were analyzed by UPLC, and the Po/w value was determined. In addition to water used as an aqueous phase, the partition coefficient between n-octanol and buffer at pH 4.5 and the Po/buffer pH 4.5 value were determined (see S1 Appendix).
The Po/w value and Po/buffer pH 4.5 value were calculated by Eq. 3 and Eq. 4, respectively. The Log Po/w and Log Po/buffer pH 4.5 were evaluated from the average results (n = 6) from three solvent ratios, where the results fall within the range of variation of ± 0.3 units. […]
The half-lives (t1/2) of CUR-2GE were calculated by Eq. 6: […]

BV-2 microglial cells = assay: Cytotoxicity (MTT assay); type: cell-based, murine; settings: BV-2 cells, 24 h
Procedure: BV-2 microglial cells were cultured in DMEM supplemented with 10% fetal bovine serum, 2 mM L-glutamine, 1% penicillin/streptomycin (100 units/mL penicillin and 100 μg/mL streptomycin) at 37°C in 5% CO2. BV-2 microglial cells were plated in a 24-well plate at a density of 2 × 10^5 cells/well for 24 h. Various concentrations at 0, 1.25, 2.5, 5, 10, or 20 μM of curcumin or CUR-2GE were determined for a non-toxic concentration. After 24 h, cell viability was assessed by an MTT assay. The media was removed and replaced with an MTT solution in PBS (0.5 mg/mL). After 3-h incubation, the MTT solution was discarded, and formazan crystals formed after the reaction was dissolved in DMSO. The absorbance was then read at 540 nm using a microplate reader (CLARIOstar®, BMG Labtech, Ortenberg, Germany). The percentage of cell viability was expressed relative to the control cells. In addition, the cell viability of BV-2 microglial cells treated with LPS and a combination of LPS and the test compounds was also determined.

[3] = M0 927 mg, V0 250 mL, Cs at 37°C without 0.5% SLS

Compound: CCOC(=O)CCCNC(=O)Oc1ccc(/C=C/C(=O)/C=C(O)/C=C/c2ccc(OC(=O)NCCCC(=O)OCC)c(OC)c2)cc1OC [CUR-2GE, Curcumin diethyl γ-aminobutyrate]
- Solubility, buffer pH 1.2 ([1]; 37°C, without SLS, <LOQ refers to less than 0.05 μg/mL): <LOQ
- D0 x 10^3 (dose number), buffer pH 1.2 [1, 3]: 74.16 x 10^3
- D0 x 10^3 (dose number), buffer pH 4.5 [1, 3]: 5.80 x 10^3
- D0 x 10^3 (dose number), buffer pH 6.8 [1, 3]: 10.89 x 10^3
- degradation during solubility test ([1]; all media except buffer pH 1.2 with SLS): less than 10%
- degradation during solubility test ([1]; buffer pH 1.2 with SLS, 37°C): more than 10%
- solubility at 1 h ([1]; buffer pH 4.5 with 0.5% SLS, pH 4.5, aqueous with cosolvent or surfactant or cyclodextrin, 37°C + 0.5% SLS, read-out: Solubility, buffer pH 4.5): 23.35 ± 0.18 µg/mL
- solubility at 1 h ([1]; buffer pH 4.5 without SLS, pH 4.5, aqueous buffer, 37°C, without SLS, read-out: Solubility, buffer pH 4.5): 0.64 ± 0.51 µg/mL (≈ 0.937 µM)
- solubility at 1 h ([1]; buffer pH 6.8 with 0.5% SLS, pH 6.8, aqueous with cosolvent or surfactant or cyclodextrin, 37°C + 0.5% SLS, read-out: Solubility, buffer pH 6.8): 148 ± 38.5 µg/mL
- solubility at 1 h ([1]; buffer pH 6.8 without SLS, pH 6.8, aqueous buffer, 37°C, without SLS, read-out: Solubility, buffer pH 6.8): 0.34 ± 0.5 µg/mL (≈ 0.498 µM)
- solubility at 1 h ([1]; buffers pH 1.2, 4.5 and 6.8 without surfactant, aqueous buffer, pH 1.2-6.8, 37°C, without SLS, read-out: Solubility in buffers at all tested pH): < 1 µg/mL
- D0 (dose number) in buffers at all tested pH ([1]; pH 1.2-6.8, 37°C, without SLS): > 1
- logP ([2]; n-octanol/buffer pH 4.5, pH 4.5, read-out: Log P (Log Po/buffer pH 4.5), n-octanol/buffer pH 4.5): 3.43 ± 0.14
- logP ([2]; n-octanol/water, read-out: Log P (Log Po/w), n-octanol/water): 3.57 ± 0.19
- non-toxic concentrations (no cytotoxicity) (BV-2 microglial cells): ≤ 10 µM
